pIC50: −log10 of the molar value. “Also recorded” adds a separate entry of the source.
How the values were obtained:
hippocampal neurons [1] = test: FUNCAT (AHA/Alexa-488) protein translation in hippocampal neurons; format: cell-based, rat; details: for dose (as low as) at which protein synthesis was significantly increased: hippocampal neuron somas and dendrites; for level of de novo protein synthesis (fluorescence intensity): hippocampal neurons, soma and dendrites
Text: Objective. To test whether Lrrk2 regulated ribosomal function in neurons, we measured the effect of three structurally independent inhibitors of Lrrk2 on de novo protein synthesis using non-canonical amino acid labeling. Rat hippocampal neurons were labelled using L-azido-homoalanine (AHA), a methionine analogue, followed by copper-I-catalyzed alkyne-azide cycloaddition of Alexa-488 with an alkyne moiety to visualize newly synthesized proteins, as previously de-scribed^8.
Methods. Measuring protein translation in hippocampal neurons using FUNCAT. To measure protein translation, hippocampal neurons were plated at densities of 100,000 cells per well on round coverslips (1.3 cm diameter) in 24-well plates. Protein translation was measured following 20 h after plating. Cells were washed once and incubated with methionine-free DMEM medium (Gibco, Thermo Fisher Scientific) supplemented with 2 mM glutamine. Then 1 mM L-azidohomoalanine (AHA) was added for 30 min. Cells were washed with 1 ml PBS and fixed with 4% paraformaldehyde. LRRK2 inhibitors, when used, were added in the methionine-free medium and retained throughout the AHA labelling procedure. Cells were permeabilized in block solution (0.25% Triton X100, 0.2% BSA, 5% sucrose, 10% horse serum in PBS), and washed 5 times with 1 ml of 3% BSA in PBS. In situ labeling with AHA was achieved using a click-it reaction to covalently Alexa-488, using reagents from ThermoFisher Life Technologies (catalogue #A10267). Coverslips were mounted in Mowiol containing 2.5% 1,4-Diazabicyclo[2.2.2]octane. Fluorescent images were acquired using a Leica DMRE microscope and Hamamatsu Photonics ORCA C4742-95 CCD camera and Zen software (Carl Zeiss). Mean fluorescence intensities were measured from regions of interest in the perisomal region. Dendrite measurements were taken from line intensities (10 μm lines from the soma into the dendrite).

dopaminergic neurons [2] = test: Rotenone-induced neurite atrophy of TH-positive dopaminergic neurons in midbrain cultures; format: cell-based, rat; details: 24 h; for effect on rotenone induced loss of neurites in dopaminergic neurons: LRRK2-IN1 1 μM, GSK-2578215A 1 μM, MLi-2 10 or 50 nM, with rotenone
Procedure: The cultures were immunostained for Tyrosine hydroxylase to identify dopaminergic neurons. The percentage of dopaminergic, TH-positive cells that had intact neurites are shown. […] Mean data +/− standard deviation from two independent experiments are shown. Over 300 cells were scored per condition. b) A representative fluorescence micrograph showing TH immunostaining (green) dopaminergic neurons is shown. (c,d) Treatment with three structurally different LRRK2 inhibitors, LRRK2-IN1 (1 μM), GSK-2578215A (1 μM) or MLi-2 (10 or 50 nM) prevented rotenone induced loss of neurites in the dopaminergic neurons. […] Standard errors of the mean are shown. #, p<0.0001.
Methods. Rotenone treatment of cell cultures—Midbrain neurons from P0 rat were plated at a density of 200,000 cells per well. At 3 days in vitro, cells were treated with rotenone in DMSO with or without IN1, GSK-2578215A of MLi-2 at the concentrations indicated. After 24 h, cells were fixed with 4% PFA in PBS and tyrosine hydroxylase (TH) was detected by standard immunostaining methods obvious to those skilled in the art. Cells were imaged using a Zeiss AxioVert 200M microscope. To measure atrophy, the % of TH-positive neurons with intact neurites was scored.

patient skin fibroblasts = test: Nascent protein synthesis (AHA/Alexa-488) in PD patient skin fibroblasts; format: cell-based, human; details: sporadic and G2019S PD fibroblasts; 1 μM IN1 or 0.01 μM MLi-2
Procedure: Methods. For FIG. 7, we measured mRNA translation in fibroblasts cultivated from patient skin biopsies using the non-canonical labelling approach outlined in example 4 with the following modifications. Fibroblasts were passaged upon reaching 95% confluence and assayed at passage 7-9. For measurement of nascent protein synthesis, fibroblasts at 48 h post plating were depleted of methionine and incubated with AHA, followed by AHA-click conjugation of Alexa-488 as described in the methods section of example 4. Average somatic fluorescent intensities were measured. As not all fibroblast lines could be assayed simultaneously, patient lines were paired with one or more control lines of equivalent passage and assayed on the same day.

hippocampal neurons [3] = test: S35-methionine metabolic labelling of de novo protein synthesis in hippocampal neurons; format: cell-based; details: rotenone 0.01-10 μM, 2 hr
Procedure: Methods. Measurement of protein translation using various S35-methioine-labelling—In order to model PD in vitro, hippocampal neurons were metabolically labelled with S35-methionine. Hippocampal neurons in 24 well plates were transferred to Met/Cys-free medium (Invitrogen, Gibco). Cells were treated with for 30 min 37 C, 5% CO2. 50 μl per well of labeling medium (100 μCi Met-S35/ml) was added and cells grown at 37°, 5% CO2 for 2 hr in the presence or absence of rotenone (0.01-10 μM). Cells were washed and lysed in 75 μl Laemmli lysis buffer. Samples were separated by SDS PAGE, incubated with EN3HANCE (NEN), gels dried and exposed to auto-radiographic film with intensifying screen to determine relative levels of de novo protein synthesis.

Lrrk2 [4] = target: T1, Lrrk2 (Mesocricetus auratus, UniProt A0A1U7Q7Z2); test: LRRK2 activity by phospho-S935-LRRK2 immunoblot in BHK21 cells; format: cell-based; details: intact BHK21 cells, rotenone 4 h
T1 construct: endogenous in cells; host or cells: BHK21 cells
T1 sequence (A0A1U7Q7Z2 1-2527): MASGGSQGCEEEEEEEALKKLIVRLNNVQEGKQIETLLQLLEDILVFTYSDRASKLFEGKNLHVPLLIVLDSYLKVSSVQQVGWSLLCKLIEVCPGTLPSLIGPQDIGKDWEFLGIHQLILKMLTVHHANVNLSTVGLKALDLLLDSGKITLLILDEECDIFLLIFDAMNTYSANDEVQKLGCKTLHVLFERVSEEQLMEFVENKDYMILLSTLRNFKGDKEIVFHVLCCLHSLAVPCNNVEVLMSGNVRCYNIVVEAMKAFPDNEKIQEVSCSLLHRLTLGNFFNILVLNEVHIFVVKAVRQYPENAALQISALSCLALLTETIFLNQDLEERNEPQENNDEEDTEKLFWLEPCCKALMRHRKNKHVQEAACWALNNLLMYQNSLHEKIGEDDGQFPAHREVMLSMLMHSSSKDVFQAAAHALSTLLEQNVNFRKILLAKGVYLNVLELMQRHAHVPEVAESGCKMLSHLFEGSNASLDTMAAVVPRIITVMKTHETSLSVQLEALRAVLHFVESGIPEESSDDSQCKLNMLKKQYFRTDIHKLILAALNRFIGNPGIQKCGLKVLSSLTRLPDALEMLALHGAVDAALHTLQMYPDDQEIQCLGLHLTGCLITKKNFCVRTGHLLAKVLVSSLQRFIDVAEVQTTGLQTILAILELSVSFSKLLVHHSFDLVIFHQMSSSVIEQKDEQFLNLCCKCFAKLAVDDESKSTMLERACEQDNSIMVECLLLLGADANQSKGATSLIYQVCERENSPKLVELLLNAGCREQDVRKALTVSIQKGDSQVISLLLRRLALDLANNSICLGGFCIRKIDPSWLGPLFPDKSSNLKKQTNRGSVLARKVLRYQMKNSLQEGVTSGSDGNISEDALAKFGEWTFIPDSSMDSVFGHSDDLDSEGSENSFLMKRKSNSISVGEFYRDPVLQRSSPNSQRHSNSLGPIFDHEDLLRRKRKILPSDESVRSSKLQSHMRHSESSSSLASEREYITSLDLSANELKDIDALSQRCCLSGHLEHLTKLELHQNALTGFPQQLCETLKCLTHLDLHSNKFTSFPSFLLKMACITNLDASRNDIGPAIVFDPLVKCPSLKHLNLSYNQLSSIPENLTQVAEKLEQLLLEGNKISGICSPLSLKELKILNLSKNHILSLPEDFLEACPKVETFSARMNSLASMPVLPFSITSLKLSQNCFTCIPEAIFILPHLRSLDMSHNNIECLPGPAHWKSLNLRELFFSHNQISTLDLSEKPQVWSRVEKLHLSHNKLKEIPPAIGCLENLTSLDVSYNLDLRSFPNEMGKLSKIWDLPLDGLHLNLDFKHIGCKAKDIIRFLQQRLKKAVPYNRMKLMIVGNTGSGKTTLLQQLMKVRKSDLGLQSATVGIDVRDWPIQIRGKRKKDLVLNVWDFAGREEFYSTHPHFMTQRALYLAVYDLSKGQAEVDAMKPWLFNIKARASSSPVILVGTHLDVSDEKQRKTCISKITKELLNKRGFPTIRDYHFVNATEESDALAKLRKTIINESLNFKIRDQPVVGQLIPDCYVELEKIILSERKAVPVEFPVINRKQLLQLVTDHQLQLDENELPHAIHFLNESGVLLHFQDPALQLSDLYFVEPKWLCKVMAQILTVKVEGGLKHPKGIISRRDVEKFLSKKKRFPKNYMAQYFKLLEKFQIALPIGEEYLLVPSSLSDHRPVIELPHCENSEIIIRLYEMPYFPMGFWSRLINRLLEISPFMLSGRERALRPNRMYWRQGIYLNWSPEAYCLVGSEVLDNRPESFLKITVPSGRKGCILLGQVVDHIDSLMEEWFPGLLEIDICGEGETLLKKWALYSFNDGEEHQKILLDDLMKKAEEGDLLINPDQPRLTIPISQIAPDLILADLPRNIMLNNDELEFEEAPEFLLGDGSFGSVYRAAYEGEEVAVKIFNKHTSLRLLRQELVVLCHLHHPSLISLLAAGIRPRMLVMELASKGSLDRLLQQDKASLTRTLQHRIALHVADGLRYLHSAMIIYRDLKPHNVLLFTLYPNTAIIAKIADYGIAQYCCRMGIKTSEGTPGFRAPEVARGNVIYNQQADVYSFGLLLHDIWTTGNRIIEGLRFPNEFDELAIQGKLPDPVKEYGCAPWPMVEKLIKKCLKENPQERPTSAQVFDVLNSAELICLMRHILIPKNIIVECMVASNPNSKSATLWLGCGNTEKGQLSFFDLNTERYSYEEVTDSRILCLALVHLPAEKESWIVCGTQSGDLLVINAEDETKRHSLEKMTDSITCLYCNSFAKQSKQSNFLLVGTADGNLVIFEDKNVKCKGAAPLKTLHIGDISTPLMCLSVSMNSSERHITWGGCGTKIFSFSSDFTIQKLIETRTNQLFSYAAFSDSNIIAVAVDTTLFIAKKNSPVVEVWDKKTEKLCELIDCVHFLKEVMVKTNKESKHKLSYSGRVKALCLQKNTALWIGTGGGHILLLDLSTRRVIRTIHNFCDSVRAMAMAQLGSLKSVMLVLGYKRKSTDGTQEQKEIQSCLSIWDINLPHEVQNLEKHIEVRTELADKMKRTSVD
Procedure: Methods. To examine the effect of rotenone treatment on LRRK2 activity, BHK21 cells were treated with or without the indicated dose of rotenone for 4 h. Cells were lysed in Laemmli buffer and proteins separated by SDS PAGE. LRRK2 activity was determined by immunoblotting with an antibody detecting phospho-S935-LRRK2. Blots were reprobed with an antibody detecting LRRK2 to establish loading variability. LRRK2 activity was quantified by densitometry of gel exposures captured using the Gel Doc XR system (Biorad).

PBMCs and fibroblasts = test: AHA labelling, biotin-alkyne enrichment and anti-biotin-HRP immunoblot of nascent proteins in PBMCs and fibroblasts; format: cell-based, human; details: AHA-labelled PBMCs and fibroblasts, streptavidin bead purification
Text: Patient samples were from the NINDS-Coriell Institute in the USA, the European Biobank in Milan and the Turku University Hospital (T.U.H.) cohort in Finland. a) A heat map showing intensity values for MS/MS-identified nascent proteins from AHA-labelled cells (fibroblasts and PBMCs). Nascent proteins were isolated following covalent linkage to alkyne-agarose beads. After tryptic digestion, the released peptides were sequenced by mass spectrometry and identified using Maxquant software. As negative controls to determine non-specific protein binding, cells were labelled with methionine instead of AHA. […] This approach yields a set of peptides that can be rapidly quantitated using a mass spectrometer using data dependant acquisition (DDA) using Selected Reaction Monitoring or Parallel Reaction Monitoring or by data independent acquisition (DIA) or using other types of mass spectrometry methods. […] It is compared to samples that were labelled with methionine instead of AHA. […]
Sepharose was washed 2× with 1 ml LiCl buffer (500 mM LiCl2, 100 mM Tris, pH 7.6, 0.1% TX100, 1 mM DTT), followed by 4×1 ml PBS washes. […] Samples were either in-gel digested with trypsin for MS/MS identification (example 1) or transferred to nitrocellulose for quantitative immunoblot detection using an anti-biotin, horse-radish peroxidase (HRP)-conjugated antibody (Cell Signalling Technology) (example 9b). […]

dopaminergic neurons [5] = test: FUNCAT protein translation in midbrain cultures (dopaminergic neurons); format: cell-based; details: TH-positive neurons, 3 days post-plating
Text: FIG. 6 uses click chemistry to label newly synthesised proteins with AHA. […] Dopaminergic neurons are visualised by tyrosine hydroxylase (TH) staining. a) Representative images of midbrain cultures treated with increasing concentrations of Lrrk2 IN2, and stained for TH is shown. b,c) protein translation in the somas of TH-positive and TH-negative cells is shown. d) The effect of anisomycin (to inhibit translation) on mid brain culture de novo protein synthesis is shown by representative images. e) Quantitative data from d is shown. p-values are shown on the graphs above the data points to which they apply.
Methods. To measure protein translation in dopaminergic neurons, mid brain cultures were plated at densities of 500,000 cells per well on round coverslips (1.3 cm diameter) in 24-well plates. At 3 days post-plating neurons underwent FUNCAT (see example 4). Dopaminergic neurons were detected by tyrosine hydroxylase immunofluorescence. Fluorescent intensity was measured as described in example 4 (methods).

BHK21 cells = test: Protein translation by AHA labelling and click Alexa-488 in rotenone-treated BHK21 cells; format: cell-based; details: rotenone 100 nM, 1 μM LRRK2-IN1
Procedure: Furthermore, LRRK2-G2019S directly impairs protein translation in a reconstituted translation system. a) LRRK2 activity is inferred using a phospho-specific antibody ([…]) that recognises the active form of LRRK2. b) Quantitative data from 6 independent repeats as shown in (a). c, d) To determine whether inhibition of LRRK2 kinase activity could recover normal protein translation in cultured cells, BHK21 cells were treated with or without rotenone (100 nM) in the presence or absence of the indicated concentration of LRRK2-IN1. Protein translation was measured using non-canonical amino acid labelling with AHA followed by copper-catalysed click addition of alkyne-Alexa-488. Representative fluorescent micrographs (c) and quantitative data (d) are shown. […] Standard errors of the mean are plotted. #, p<0.0001.
To determine whether inhibition of LRRK2 activity could recover normal translation in BHK21 cells following rotenone treatment, BHK21 cells with or without prior treatment (30 min) with LRRK2 inhibitor (1 or 10 μM of IN1) were treated with rotenone or carrier (control) as indicated. Translation was visualized following AHA labeling and immunofluorescence quantified as earlier.

Lrrk2 [6] = target: Lrrk2 (Homo sapiens, UniProt Q5S007); details: blocks Lrrk2; read-out: biochemical IC50; cited from earlier work
Lrrk2 (Homo sapiens, UniProt Q5S007), sequence (Q5S007 whole entry, species assumed): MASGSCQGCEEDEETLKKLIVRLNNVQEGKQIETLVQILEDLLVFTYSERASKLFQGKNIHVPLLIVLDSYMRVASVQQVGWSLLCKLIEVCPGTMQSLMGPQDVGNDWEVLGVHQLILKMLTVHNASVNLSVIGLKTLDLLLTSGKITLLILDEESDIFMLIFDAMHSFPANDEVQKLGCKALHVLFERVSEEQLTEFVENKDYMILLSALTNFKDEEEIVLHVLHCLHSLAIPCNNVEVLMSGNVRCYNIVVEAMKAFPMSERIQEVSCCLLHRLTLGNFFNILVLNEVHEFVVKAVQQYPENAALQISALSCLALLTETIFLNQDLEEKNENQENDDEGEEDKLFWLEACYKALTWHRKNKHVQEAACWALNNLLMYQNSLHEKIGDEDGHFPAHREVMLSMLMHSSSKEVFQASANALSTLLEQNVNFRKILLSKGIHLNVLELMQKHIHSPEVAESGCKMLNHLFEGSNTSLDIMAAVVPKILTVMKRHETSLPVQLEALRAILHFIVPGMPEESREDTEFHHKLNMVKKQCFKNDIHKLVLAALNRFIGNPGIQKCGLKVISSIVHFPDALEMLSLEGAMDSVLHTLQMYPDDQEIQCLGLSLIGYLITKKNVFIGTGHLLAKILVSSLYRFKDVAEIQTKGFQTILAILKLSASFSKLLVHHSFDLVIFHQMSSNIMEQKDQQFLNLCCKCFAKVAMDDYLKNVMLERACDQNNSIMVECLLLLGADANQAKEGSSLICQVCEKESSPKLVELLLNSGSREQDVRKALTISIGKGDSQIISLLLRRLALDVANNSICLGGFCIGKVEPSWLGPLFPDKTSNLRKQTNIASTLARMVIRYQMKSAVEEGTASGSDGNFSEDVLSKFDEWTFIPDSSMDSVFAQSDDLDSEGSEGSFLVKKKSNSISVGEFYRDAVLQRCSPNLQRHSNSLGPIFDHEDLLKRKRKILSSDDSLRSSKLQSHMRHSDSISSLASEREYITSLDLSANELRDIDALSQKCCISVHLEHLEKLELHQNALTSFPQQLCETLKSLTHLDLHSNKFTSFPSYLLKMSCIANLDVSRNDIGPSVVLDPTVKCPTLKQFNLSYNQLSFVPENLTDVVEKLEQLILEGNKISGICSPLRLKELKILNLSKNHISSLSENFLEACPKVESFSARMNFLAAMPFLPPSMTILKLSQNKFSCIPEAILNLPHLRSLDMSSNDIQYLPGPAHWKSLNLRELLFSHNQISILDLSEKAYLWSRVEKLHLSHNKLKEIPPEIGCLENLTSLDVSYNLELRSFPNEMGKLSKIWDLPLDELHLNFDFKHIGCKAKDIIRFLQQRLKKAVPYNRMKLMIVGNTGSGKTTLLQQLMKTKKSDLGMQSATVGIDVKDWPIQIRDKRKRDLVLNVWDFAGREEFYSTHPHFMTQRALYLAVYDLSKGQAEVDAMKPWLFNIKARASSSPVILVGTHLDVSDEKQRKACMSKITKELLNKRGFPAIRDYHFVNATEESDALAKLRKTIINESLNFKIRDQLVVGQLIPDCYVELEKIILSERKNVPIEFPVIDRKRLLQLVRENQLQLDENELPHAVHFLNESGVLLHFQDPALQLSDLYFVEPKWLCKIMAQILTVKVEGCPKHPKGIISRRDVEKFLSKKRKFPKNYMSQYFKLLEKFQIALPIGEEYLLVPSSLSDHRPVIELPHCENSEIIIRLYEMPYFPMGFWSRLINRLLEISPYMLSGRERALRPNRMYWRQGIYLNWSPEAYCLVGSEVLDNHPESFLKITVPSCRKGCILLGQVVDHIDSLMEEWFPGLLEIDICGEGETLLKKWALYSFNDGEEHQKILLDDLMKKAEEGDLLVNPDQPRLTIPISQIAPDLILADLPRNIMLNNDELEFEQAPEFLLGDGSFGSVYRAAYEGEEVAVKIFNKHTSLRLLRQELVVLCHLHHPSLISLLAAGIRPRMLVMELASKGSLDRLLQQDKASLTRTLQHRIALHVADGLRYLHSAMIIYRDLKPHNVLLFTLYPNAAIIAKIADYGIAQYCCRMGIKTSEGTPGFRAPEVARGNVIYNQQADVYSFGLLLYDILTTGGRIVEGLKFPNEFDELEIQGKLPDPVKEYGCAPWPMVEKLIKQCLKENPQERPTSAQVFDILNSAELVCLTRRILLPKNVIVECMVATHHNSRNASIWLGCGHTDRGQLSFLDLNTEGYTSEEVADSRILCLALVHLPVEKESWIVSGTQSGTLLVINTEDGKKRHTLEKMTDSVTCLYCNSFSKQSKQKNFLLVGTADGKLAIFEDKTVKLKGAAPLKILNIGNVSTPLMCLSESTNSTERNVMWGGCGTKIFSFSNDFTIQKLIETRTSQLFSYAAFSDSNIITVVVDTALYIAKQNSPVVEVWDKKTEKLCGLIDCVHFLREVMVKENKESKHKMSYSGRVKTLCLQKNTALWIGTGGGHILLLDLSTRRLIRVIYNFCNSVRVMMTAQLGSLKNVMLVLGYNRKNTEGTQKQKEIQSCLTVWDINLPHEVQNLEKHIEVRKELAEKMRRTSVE

Which “dose (as low as) at which protein synthesis was significantly increased” value (hippocampal neurons [1]) does the source give for `O=C(Nc1cccnc1)c1cc(-c2ccnc(F)c2)ccc1OCc1ccccc1` [GSK-2578215A] here?
The value was 0.1 µM.

And the “effect on rotenone induced loss of neurites in dopaminergic neurons” value (dopaminergic neurons [2])?
Its value is “prevented”.

With 3-(4-Pyrinimidyl) Indazole [MLi-2] as the compound, how does the “dose (as low as) at which protein synthesis was significantly increased” value (hippocampal neurons [1]) read?
The value was 0.01 µM.

What about the “level of de novo protein synthesis (fluorescence intensity)” value (hippocampal neurons [1]) of the same compound?
The value was “increased”.

And the “effect on rotenone induced loss of neurites in dopaminergic neurons” value (dopaminergic neurons [2])?
The value was “prevented”.

And the “reversal of decreased protein synthesis in PD patient fibroblasts” value (patient skin fibroblasts)?
The value was “reversed to a normal level”.

Which “percentage of TH-positive cells with intact neurites” value (dopaminergic neurons [2]; rotenone 0-100 nM) does the source give for `C=C(C)[C@H]1Cc2c(ccc3c2O[C@@H]2COc4cc(OC)c(OC)cc4[C@@H]2C3=O)O1` [Rotenone] here?
The value was “induced atrophy; also recorded: dose dependent loss of neurites”.

And the “de novo protein synthesis (S35-methionine labelling)” value (hippocampal neurons [3])?
Its value is “dose-dependently decreased”.

And the “LRRK2 activity (phospho-S935-LRRK2)” value (Lrrk2 [4])?
The value was “dose dependently increased”.

What does the source list for `COc1ccc(C[C@H]2NC[C@H](O)[C@H]2OC(C)=O)cc1` [Anisomycin]?
level of de novo protein synthesis (fluorescence intensity) (hippocampal neurons [1]): effectively inhibited; anti-biotin immunoblot signal of nascent proteins (PBMCs and fibroblasts): no signal; protein translation (fluorescence) (dopaminergic neurons [5]): effectively reduced

What does the source list for `COc1cc(C(=O)N2CCC(N3CCN(C)CC3)CC2)ccc1Nc1ncc2c(n1)N(C)c1ccccc1C(=O)N2C` [LRRK2-IN1]?
dose (as low as) at which protein synthesis was significantly increased (hippocampal neurons [1]): 0.1 µM; effect on rotenone induced loss of neurites in dopaminergic neurons (dopaminergic neurons [2]): prevented; protein translation level after rotenone (BHK21 cells): recovered to control level; pIC50 (Lrrk2 [6]): 8.00; reversal of decreased protein synthesis in PD patient fibroblasts (patient skin fibroblasts): reversed

— US20190390277A1, “DIAGNOSIS OF PARKINSON'S DISEASE ON THE BASIS OF DECREASED OVERALL TRANSLATION” (ÅBO AKADEMI UNIVERSITY, priority 2016, published 2019)
